In patent US20230074545A1, “TREATMENT OF CANCER WITH CDK12/13 INHIBITORS” (Kinnate Biopharma Inc., priority 2019, published 2023):

Assays:
Experiment in all cases: Radiometric kinase panel
Format in all cases: biochemical
AMPKalpha1 = biological target: T1, AMPKalpha1 (Homo sapiens, UniProt Q13131)
T1 construct: either as full-length or enzymatically active fragments; purchased ProQinase GmbH (Reaction Biology)
Outline: (§1)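 Activity was measured radiometrically from [gamma-33P]-ATP incorporation into substrate. The kinases were recombinant human GST- or His-tagged proteins, full-length or active fragments, expressed in Sf9 or E. coli. Compound in 10% DMSO was added before the enzyme/substrate mix, which started the reaction.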

BMPR1B = biological target: T2, BMPR1B (Homo sapiens, UniProt O00238)
T2 construct: either as full-length or enzymatically active fragments; purchased ProQinase GmbH (Reaction Biology)
Outline: as §1

CAMK2D = biological target: T3, CAMK2D (Homo sapiens, UniProt Q13557)
T3 construct: purchased ProQinase GmbH (Reaction Biology)
T3 sequence (Q13557 whole entry): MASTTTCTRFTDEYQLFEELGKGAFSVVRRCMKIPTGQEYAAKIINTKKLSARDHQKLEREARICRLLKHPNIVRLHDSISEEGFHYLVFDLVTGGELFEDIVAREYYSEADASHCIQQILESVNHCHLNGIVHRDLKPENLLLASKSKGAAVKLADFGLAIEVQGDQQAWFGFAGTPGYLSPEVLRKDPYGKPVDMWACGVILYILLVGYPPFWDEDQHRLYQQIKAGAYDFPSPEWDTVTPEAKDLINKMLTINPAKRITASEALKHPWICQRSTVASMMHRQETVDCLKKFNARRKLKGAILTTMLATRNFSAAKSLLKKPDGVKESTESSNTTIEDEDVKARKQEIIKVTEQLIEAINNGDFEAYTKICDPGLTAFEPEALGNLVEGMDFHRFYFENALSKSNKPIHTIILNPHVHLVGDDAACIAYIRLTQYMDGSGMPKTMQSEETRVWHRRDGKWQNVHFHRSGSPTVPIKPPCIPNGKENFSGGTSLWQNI
Outline: as §1

CDC7/DBF4 = biological target: T4, CDC7/DBF4 (Homo sapiens, UniProt O00311)
T4 construct: purchased ProQinase GmbH (Reaction Biology)
T4 sequence (O00311 whole entry): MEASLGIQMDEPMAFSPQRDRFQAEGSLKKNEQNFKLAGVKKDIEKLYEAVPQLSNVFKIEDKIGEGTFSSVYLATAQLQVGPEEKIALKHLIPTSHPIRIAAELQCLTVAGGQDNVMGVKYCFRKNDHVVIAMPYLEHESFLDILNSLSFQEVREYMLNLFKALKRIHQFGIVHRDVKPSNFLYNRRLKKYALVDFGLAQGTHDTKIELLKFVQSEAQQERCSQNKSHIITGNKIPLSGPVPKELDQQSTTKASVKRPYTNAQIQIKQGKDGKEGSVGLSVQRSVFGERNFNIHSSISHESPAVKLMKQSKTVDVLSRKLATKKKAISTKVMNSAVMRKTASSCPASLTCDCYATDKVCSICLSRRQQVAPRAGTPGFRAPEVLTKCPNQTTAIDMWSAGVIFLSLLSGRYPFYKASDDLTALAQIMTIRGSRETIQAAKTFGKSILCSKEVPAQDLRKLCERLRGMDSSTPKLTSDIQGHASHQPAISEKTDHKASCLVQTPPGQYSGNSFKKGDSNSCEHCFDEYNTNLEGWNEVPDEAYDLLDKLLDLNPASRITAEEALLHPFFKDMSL
T4 sequence (Q9UBU7 whole entry partner): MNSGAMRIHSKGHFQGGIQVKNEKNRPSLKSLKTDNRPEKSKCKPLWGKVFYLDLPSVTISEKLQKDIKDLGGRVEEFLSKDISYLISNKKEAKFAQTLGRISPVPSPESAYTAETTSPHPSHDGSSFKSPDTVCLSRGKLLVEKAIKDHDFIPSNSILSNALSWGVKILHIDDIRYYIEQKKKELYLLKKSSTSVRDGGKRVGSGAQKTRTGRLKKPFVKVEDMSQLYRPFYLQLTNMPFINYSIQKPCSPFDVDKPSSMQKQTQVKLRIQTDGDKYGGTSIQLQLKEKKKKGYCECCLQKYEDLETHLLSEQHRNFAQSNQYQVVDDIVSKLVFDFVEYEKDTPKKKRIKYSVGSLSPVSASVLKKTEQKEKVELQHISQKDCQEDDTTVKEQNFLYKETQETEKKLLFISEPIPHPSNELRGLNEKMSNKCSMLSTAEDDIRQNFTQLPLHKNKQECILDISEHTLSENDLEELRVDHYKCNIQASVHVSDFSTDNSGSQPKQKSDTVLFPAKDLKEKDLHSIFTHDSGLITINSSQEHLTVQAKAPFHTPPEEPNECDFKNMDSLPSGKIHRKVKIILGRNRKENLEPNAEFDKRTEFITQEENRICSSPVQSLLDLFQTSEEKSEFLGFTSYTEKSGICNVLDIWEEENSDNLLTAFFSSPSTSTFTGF
Outline: as §1

CDK17/p35NCK = biological target: T5, CDK17/p35NCK (Homo sapiens, UniProt Q00537)
T5 construct: either as full-length or enzymatically active fragments; purchased ProQinase GmbH (Reaction Biology); host or cells: Sf9 insect cells or E. coli
Outline: as §1

CDK18/CycY = biological target: T6, CDK18/CycY (Homo sapiens, UniProt Q07002)
T6 construct: either as full-length or enzymatically active fragments; purchased ProQinase GmbH (Reaction Biology)
T6 sequence (Q07002 whole entry, the tested form may be a part): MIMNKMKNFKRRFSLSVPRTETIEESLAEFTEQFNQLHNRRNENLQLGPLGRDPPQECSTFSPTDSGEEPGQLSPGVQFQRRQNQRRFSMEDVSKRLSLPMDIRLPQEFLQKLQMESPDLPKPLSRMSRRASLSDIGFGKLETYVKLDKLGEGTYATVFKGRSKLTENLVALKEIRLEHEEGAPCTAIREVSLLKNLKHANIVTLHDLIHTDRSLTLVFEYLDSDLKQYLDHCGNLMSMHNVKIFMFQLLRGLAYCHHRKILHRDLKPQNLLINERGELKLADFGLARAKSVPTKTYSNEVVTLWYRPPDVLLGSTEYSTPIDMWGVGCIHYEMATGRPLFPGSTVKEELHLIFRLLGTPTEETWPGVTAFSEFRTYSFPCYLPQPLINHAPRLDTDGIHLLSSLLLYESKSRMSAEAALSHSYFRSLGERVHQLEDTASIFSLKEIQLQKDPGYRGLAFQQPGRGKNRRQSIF
T6 sequence (Q8ND76 whole entry partner, the tested form may be a part): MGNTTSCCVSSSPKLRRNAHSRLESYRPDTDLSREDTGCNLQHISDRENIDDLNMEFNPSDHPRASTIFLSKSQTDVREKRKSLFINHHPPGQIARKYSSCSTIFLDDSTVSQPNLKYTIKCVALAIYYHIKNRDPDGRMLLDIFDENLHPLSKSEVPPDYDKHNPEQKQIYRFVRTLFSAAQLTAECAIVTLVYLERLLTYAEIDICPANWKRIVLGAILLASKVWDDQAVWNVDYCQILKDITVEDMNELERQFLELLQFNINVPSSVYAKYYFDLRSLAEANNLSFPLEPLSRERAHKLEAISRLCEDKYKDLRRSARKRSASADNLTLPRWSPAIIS
Outline: as §1

CHK2 = biological target: T7, CHK2 (Homo sapiens, UniProt O96017)
T7 construct: either as full-length or enzymatically active fragments; purchased ProQinase GmbH (Reaction Biology)
T7 sequence (O96017 whole entry, the tested form may be a part): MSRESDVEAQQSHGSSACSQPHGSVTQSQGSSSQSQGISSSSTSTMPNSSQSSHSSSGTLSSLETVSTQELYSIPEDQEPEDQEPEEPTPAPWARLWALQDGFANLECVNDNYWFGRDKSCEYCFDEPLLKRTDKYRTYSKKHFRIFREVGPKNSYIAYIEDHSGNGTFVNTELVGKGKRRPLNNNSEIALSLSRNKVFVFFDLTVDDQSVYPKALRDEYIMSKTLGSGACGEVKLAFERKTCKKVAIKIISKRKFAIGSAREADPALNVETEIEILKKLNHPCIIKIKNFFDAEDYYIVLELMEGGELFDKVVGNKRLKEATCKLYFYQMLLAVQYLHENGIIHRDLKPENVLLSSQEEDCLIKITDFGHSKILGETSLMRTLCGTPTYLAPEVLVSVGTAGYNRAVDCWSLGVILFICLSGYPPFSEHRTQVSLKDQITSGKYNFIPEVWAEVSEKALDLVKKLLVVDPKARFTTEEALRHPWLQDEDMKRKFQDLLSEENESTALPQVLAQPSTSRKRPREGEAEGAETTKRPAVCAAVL
Outline: as §1

CLK2 = biological target: T8, CLK2 (Homo sapiens, UniProt P49760)
T8 construct: purchased ProQinase GmbH (Reaction Biology)
Outline: as §1

DMPK = biological target: T9, DMPK (Homo sapiens, UniProt Q09013)
T9 construct: either as full-length or enzymatically active fragments; purchased ProQinase GmbH (Reaction Biology); host or cells: Sf9 insect cells or E. coli
Outline: as §1

EGFR = biological target: T10, EGFR (Homo sapiens, UniProt P00533)
T10 construct: either as full-length or enzymatically active fragments; purchased ProQinase GmbH (Reaction Biology)
Outline: as §1

EPHA3 = biological target: T11, EPHA3 (Homo sapiens, UniProt P29320)
T11 construct: either as full-length or enzymatically active fragments; purchased ProQinase GmbH (Reaction Biology)
Outline: as §1

ERK1 = biological target: T12, ERK1 (Homo sapiens, UniProt P27361)
T12 construct: either as full-length or enzymatically active fragments; purchased ProQinase GmbH (Reaction Biology)
T12 sequence (P27361 whole entry, the tested form may be a part): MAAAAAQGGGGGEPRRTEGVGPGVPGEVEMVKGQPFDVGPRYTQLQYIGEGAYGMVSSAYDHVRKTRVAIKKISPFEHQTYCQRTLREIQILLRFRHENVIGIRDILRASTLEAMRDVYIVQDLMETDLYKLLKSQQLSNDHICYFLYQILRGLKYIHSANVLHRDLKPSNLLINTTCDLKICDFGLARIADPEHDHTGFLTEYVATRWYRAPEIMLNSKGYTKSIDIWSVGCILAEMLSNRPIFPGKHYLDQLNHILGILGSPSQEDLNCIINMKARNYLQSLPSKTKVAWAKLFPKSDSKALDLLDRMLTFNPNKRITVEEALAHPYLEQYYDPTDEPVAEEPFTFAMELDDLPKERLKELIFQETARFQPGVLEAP
Outline: as §1

ERK5 = biological target: T13, ERK5 (Homo sapiens, UniProt Q13164)
T13 construct: either as full-length or enzymatically active fragments; purchased ProQinase GmbH (Reaction Biology)
Outline: as §1

FGR = biological target: T14, FGR (Homo sapiens, UniProt P09769)
T14 construct: purchased ProQinase GmbH (Reaction Biology)
Outline: as §1

GRK4 = biological target: T15, GRK4 (Homo sapiens, UniProt P32298)
T15 construct: either as full-length or enzymatically active fragments; purchased ProQinase GmbH (Reaction Biology)
Outline: as §1

IKKbeta = biological target: T16, IKKbeta (Homo sapiens, UniProt O14920)
T16 construct: purchased ProQinase GmbH (Reaction Biology); host or cells: Sf9 insect cells or E. coli (not specified per kinase)
Outline: as §1

ITK = biological target: T17, ITK (Homo sapiens, UniProt Q08881)
T17 construct: purchased ProQinase GmbH (Reaction Biology); host or cells: Sf9 insect cells or E. coli (not specified per kinase)
Outline: as §1

LYN = biological target: T18, LYN (Homo sapiens, UniProt P07948)
T18 construct: either as full-length or enzymatically active fragments; purchased ProQinase GmbH (Reaction Biology)
T18 sequence (P07948 whole entry, the tested form may be a part): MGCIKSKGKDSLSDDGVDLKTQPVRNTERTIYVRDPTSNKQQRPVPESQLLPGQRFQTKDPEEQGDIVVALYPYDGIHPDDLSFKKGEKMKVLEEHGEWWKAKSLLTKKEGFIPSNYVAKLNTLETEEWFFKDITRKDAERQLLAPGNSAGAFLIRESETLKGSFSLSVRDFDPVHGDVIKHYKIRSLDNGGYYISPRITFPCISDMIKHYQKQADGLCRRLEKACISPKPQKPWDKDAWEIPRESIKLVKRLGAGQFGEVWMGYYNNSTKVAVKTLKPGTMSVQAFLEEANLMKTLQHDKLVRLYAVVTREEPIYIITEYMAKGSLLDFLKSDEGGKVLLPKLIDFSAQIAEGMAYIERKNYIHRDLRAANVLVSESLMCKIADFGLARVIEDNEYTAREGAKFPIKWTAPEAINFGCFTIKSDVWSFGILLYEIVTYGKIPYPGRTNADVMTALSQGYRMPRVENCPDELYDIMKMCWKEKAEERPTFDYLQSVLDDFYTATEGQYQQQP
Outline: as §1

MAP3K10 = biological target: T19, MAP3K10 (Homo sapiens, UniProt Q02779)
T19 construct: either as full-length or enzymatically active fragments; purchased ProQinase GmbH (Reaction Biology)
Outline: as §1

MAPKAPK3 = biological target: T20, MAPKAPK3 (Homo sapiens, UniProt Q16644)
T20 construct: either as full-length or enzymatically active fragments; purchased ProQinase GmbH (Reaction Biology)
Outline: as §1

MKNK2 = biological target: T21, MKNK2 (Homo sapiens, UniProt Q9HBH9)
T21 construct: either as full-length or enzymatically active fragments; purchased ProQinase GmbH (Reaction Biology)
Outline: as §1

MTOR = biological target: T22, MTOR (Homo sapiens, UniProt P42345)
T22 construct: purchased ProQinase GmbH (Reaction Biology); host or cells: Sf9 insect cells or E. coli (not specified per kinase)
Outline: as §1

MYLK2 = biological target: T23, MYLK2 (Homo sapiens, UniProt Q9H1R3)
T23 construct: either as full-length or enzymatically active fragments; purchased ProQinase GmbH (Reaction Biology); host or cells: Sf9 insect cells or E. coli
Outline: as §1

NIK = biological target: T24, NIK (Homo sapiens, UniProt Q99558)
T24 construct: purchased ProQinase GmbH (Reaction Biology)
T24 sequence (Q99558 whole entry): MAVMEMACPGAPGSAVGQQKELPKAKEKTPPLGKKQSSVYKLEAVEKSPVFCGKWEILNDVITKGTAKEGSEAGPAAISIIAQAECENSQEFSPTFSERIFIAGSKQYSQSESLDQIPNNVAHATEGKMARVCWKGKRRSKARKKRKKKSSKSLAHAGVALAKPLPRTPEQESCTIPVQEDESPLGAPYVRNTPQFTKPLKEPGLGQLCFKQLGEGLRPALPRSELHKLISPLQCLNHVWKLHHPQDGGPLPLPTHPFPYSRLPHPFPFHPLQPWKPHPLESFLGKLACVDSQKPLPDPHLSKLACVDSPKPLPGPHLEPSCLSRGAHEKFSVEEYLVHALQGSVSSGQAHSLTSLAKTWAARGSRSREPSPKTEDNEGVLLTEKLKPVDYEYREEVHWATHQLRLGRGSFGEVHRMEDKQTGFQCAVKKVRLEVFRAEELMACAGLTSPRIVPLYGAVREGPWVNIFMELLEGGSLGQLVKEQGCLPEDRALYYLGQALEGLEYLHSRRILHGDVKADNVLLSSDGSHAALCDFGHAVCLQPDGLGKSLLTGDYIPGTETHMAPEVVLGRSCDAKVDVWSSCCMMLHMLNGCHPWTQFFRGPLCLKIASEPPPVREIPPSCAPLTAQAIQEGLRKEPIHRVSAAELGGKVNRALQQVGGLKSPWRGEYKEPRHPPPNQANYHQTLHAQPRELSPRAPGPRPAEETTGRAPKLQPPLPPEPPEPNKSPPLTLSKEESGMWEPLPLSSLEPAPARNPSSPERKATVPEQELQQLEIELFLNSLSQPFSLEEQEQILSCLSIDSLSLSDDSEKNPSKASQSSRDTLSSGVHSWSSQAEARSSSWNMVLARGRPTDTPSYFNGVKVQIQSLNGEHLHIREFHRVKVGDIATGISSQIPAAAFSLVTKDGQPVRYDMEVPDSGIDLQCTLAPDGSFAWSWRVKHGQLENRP
Outline: as §1

PBK = biological target: T25, PBK (Homo sapiens, UniProt Q96KB5)
T25 construct: purchased ProQinase GmbH (Reaction Biology); host or cells: Sf9 insect cells or E. coli (not specified per kinase)
Outline: as §1

PKMYT1 = biological target: T26, PKMYT1 (Homo sapiens, UniProt Q99640)
T26 construct: either as full-length or enzymatically active fragments; purchased ProQinase GmbH (Reaction Biology)
Outline: as §1

SAK = biological target: T27, SAK (Homo sapiens, UniProt O00444)
T27 construct: either as full-length or enzymatically active fragments; purchased ProQinase GmbH (Reaction Biology)
Outline: as §1

SRPK2 = biological target: T28, SRPK2 (Homo sapiens, UniProt P78362)
T28 construct: purchased ProQinase GmbH (Reaction Biology)
Outline: as §1

TLK1 = biological target: T29, TLK1 (Homo sapiens, UniProt Q9UKI8)
T29 construct: purchased ProQinase GmbH (Reaction Biology)
Outline: as §1

VEGFR2 = biological target: T30, VEGFR2 (Homo sapiens, UniProt P35968)
T30 construct: either as full-length or enzymatically active fragments; purchased ProQinase GmbH (Reaction Biology); host or cells: Sf9 insect cells or E. coli
Outline: as §1

p38gamma = biological target: T31, p38gamma (Homo sapiens, UniProt P53778)
T31 construct: either as full-length or enzymatically active fragments; purchased ProQinase GmbH (Reaction Biology); host or cells: Sf9 insect cells or E. coli (not specified per kinase)
Outline: as §1

C=CC(=O)Nc1ccc(C(=O)N2CC[C@@H](Nc3ncc(C#N)cn3)C2)cc1 [Compound 4, (R)-N-(4-(3-((5-cyanopyrimidin-2-yl)amino)pyrrolidine-1-carbonyl)phenyl)acrylamide]
inhibition at 1 µM (AMPKalpha1): 2% | inhibition at 1 µM (BMPR1B): 6% | inhibition at 1 µM (CAMK2D): 0% | inhibition at 1 µM (CDC7/DBF4): -2% | inhibition at 1 µM (CDK17/p35NCK): 12% | inhibition at 1 µM (CDK18/CycY): 20% | inhibition at 1 µM (CHK2): 5% | inhibition at 1 µM (CLK2): -2% | inhibition at 1 µM (DMPK): 11% | inhibition at 1 µM (EGFR): 7% | inhibition at 1 µM (EPHA3): 6% | inhibition at 1 µM (ERK1): -4% | inhibition at 1 µM (ERK5): 6% | inhibition at 1 µM (FGR): -1% | inhibition at 1 µM (GRK4): -13% | inhibition at 1 µM (IKKbeta): 1% | inhibition at 1 µM (ITK): 1% | inhibition at 1 µM (LYN): -8% | inhibition at 1 µM (MAP3K10): -5% | inhibition at 1 µM (MAPKAPK3): 8% | inhibition at 1 µM (MKNK2): 4% | inhibition at 1 µM (MTOR): 1% | inhibition at 1 µM (MYLK2): 12% | inhibition at 1 µM (NIK): -2% | inhibition at 1 µM (PBK): 0% | inhibition at 1 µM (PKMYT1): 5% | inhibition at 1 µM (SAK): -11% | inhibition at 1 µM (SRPK2): 0% | inhibition at 1 µM (TLK1): -1% | inhibition at 1 µM (VEGFR2): 12% | inhibition at 1 µM (p38gamma): 10%
